Measurements published in article PMC7663645 (Molecules, 2020).

Molecular target: T1, MAO-B (Rattus norvegicus, UniProt P19643)
T1 construct: from tissue; host or cells: rat brain (membrane homogenates)
T1 sequence (P19643 1-520): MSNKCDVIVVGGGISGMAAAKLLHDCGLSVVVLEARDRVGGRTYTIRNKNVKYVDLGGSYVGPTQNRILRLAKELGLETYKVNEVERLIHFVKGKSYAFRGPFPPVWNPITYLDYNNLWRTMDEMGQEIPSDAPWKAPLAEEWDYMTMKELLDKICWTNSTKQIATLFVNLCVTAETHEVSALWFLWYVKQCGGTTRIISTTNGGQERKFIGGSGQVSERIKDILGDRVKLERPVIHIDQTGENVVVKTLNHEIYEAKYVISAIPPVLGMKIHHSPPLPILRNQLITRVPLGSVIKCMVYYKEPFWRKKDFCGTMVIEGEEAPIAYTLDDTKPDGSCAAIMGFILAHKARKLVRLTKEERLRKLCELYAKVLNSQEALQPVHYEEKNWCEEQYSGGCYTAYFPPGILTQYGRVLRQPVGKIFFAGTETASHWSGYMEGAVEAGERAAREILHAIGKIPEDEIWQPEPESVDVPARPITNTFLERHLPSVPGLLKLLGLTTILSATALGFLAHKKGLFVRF
Assay: Radioligand competition binding assay with L-[^3H]Deprenyl on rat brain membrane homogenates
Conditions: homologous binding experiments, rat brain homogenates
Description: The affinity of the synthesized derivatives towards MAO-B was determined in radioligand competition binding assays. […] Non-specific binding was determined in the presence of 10 μM of rasagiline. The reaction was terminated by rapid filtration using Whatman GF/B glass-fiber filters, pre-soaked in 0.3% polyethyleneimine, and a 48-channel harvester (Biomedical Research and Development Laboratories, Gaithersburg, MD, USA) followed by washing four times with ice-cold TRIS-HCl buffer. Filter-bound radioactivity was quantified by liquid scintillation counting. The results represent two single experiments, each performed in triplicate. […] The data were analyzed with GraphPad Prism, Version 4.1 (GraphPad Inc., La Jolla, CA, USA).

Row | Compound | Bmax
1 | L-[^3H]Deprenyl [reference compound] | 2.29 ± 2.08 pmol/mg protein

Same assay, conditions: read-out: IC50 (MAO-B binding affinity)

Row | Compound | IC50
2 | Fc1cccc(N2CCN(C/C=C/c3ccccc3F)CC2)n1 [Compound 14, (E)-1-(3-(2-Fluorophenyl)allyl)-4-(6-fluoropyridin-2-yl)piperazine] | > 10 µM
3 | Fc1cc(N2CCN(C/C=C/c3ccccc3F)CC2)ccn1 [Compound 16, (E)-1-(3-(2-Fluorophenyl)allyl)-4-(2-fluoropyridin-4-yl)piperazine] | > 10 µM
4 | O=C(c1ccc(F)cc1)N1CCN(C/C=C/c2ccccc2F)CC1 [Compound 13, (E)-(4-Fluorophenyl)(4-(3-(2-fluorophenyl)allyl)piperazin-1-yl)methanone] | > 10 µM
5 | Fc1ccc(N2CCN(C/C=C/c3ccccc3F)CC2)cn1 [Compound 15, (E)-1-(3-(2-Fluorophenyl)allyl)-4-(6-fluoropyridin-3-yl)piperazine] | > 10 µM
6 | Fc1cccc(N2CCN(CC=Cc3ccccc3)CC2)n1 [Compound 9, 1-Cinnamyl-4-(6-fluoropyridin-2-yl)piperazine] | > 10 µM
7 | Fc1cc(N2CCN(CC=Cc3ccccc3)CC2)ccn1 [Compound 11, 1-Cinnamyl-4-(2-fluoropyridin-4-yl)piperazine] | > 10 µM
8 | Fc1ccc(N2CCN(CC=Cc3ccccc3)CC2)cn1 [Compound 10, 1-Cinnamyl-4-(6-fluoropyridin-3-yl)piperazine] | > 10 µM
9 | O=C(c1ccc(F)cc1)N1CCN(C/C=C/c2ccccc2)CC1 [Compound 8, (E)-(4-cinnamylpiperazin-1-yl)(4-fluorophenyl)methanone] | > 10 µM
10 | Fc1ncccc1N1CCN(CC=Cc2ccccc2)CC1 [Compound 12, 1-Cinnamyl-4-(2-fluoropyridin-3-yl)piperazine] | > 10 µM
11 | Fc1ccccc1/C=C/CN1CCN(c2cccnc2F)CC1 [Compound 17, (E)-1-(3-(2-Fluorophenyl)allyl)-4-(2-fluoropyridin-3-yl)piperazine] | > 10 µM

Test system: recombinant human MAO-B
Assay: not given
Design: method as in earlier work
Conditions: cited from earlier work

Row | Compound | IC50
12 | L-[^18F]Deprenyl | 0.227 ± 0.0368 µM

Test system: MAO-B
Assay: not given
Design: method as in PMID 31060887
Conditions: cited from earlier work

Row | Compound | IC50
13 | COC[C@@H]1CN(c2noc3cc(OCCCCC[18F])ccc23)C(=O)O1 [[^18F]6] | 0.11 µM
